Laboratory results reported in publication PMC3210919 (Biochemistry, 2011).

Assays:
[1] = tested on: PC from B. Thermodenitrificans; conditions: read-out: apparent Km for HCO3^−; presence of acetyl-CoA; ref [32]; cited from earlier work
[2] = tested on: wild-type RePC (pyruvate carboxylase from R. etli); assay: Pyruvate carboxylation activity, malate dehydrogenase coupled assay; format: biochemical, Rhizobium etli
wild-type RePC = wild-type RePC (Rhizobium etli, UniProt Q2K340); format: biochemical
sheep kidney PC = conditions: noncompetitive with respect to MgATP, full forward reaction; ref [22]; cited from earlier work
[3] = labelled substrate varied, others saturating, pH 7.5, 25° C, 0.25 mM acetyl-CoA
[4] = extrapolated to saturating phosphonoacetate

Structure (SMILES)	Km [1] [mM]	Km [2, 3] [mM]	kcat [2, 3] [min⁻¹]	fold lower Kii for MgADP phosphorylation than for pyruvate carboxylation (wild-type RePC) [fold]	fold lower Kis for MgADP phosphorylation than for pyruvate carboxylation (wild-type RePC) [fold]	type of inhibition with respect to carbamoyl phosphate (wild-type RePC)	V/Km at saturating phosphonoacetate, % of the uninhibited reaction (wild-type RePC; [4]) [%]	Vmax at saturating phosphonoacetate, % of the uninhibited reaction (wild-type RePC; [4]) [%]	Kii (intercept inhibition constant) (wild-type RePC; hyperbolic noncompetitive with respect to carbamoyl phosphate, eqn (10)) [mM]	Ki (sheep kidney PC) [µM]	type of inhibition with respect to MgATP [2]	Kii (intercept inhibition constant) ([2]; linear noncompetitive with respect to MgATP, eqn (9)) [mM]
O=C(O)O [HCO3^−]	16	10.8 ± 0.4	700 ± 20	–	–	–	–	–	–	–	–	–
O=C(O)CP(=O)(O)O [phosphonoacetate]	–	–	–	890	100	hyperbolic, noncompetitive inhibition	1.5	1	0.021 ± 0.001	500	noncompetitive	18 ± 7
